Results on 3 substances are retold here after PMC4439283 (The FEBS journal, 2015).

Read-outs that look alike come from different tables or passages of the source.

In data set [1] the target is biotinylated ECL2S peptide (Biotin-GSGS-CCR5 R168-K197 C178S-GSGS) (human). In words: SPR. For orientation: In SPR one partner is held on a chip, and binding of the other changes the refractive index at the surface.
Data set [2] shares this target. In words: SPR. The source holds these as a separate data set.
The target is the same in data set [3]. In words: SPR. The source holds these as a separate data set.
For data set [4] the following is noted: in solution; ref [16]; cited from earlier work.
Data set [5] has as its system R5 viruses. The settings on record: ref [15], cited from earlier work.
Data set [6] deals with X4 viruses. Conditions: ref [15]; cited from earlier work.
Data set [7] has as its system R5 viruses. Conditions: ref [16]; cited from earlier work.
Data set [8] concerns X4 viruses. The settings on record: ref [16]; cited from earlier work.
In the next data set the test system is X4 strain LAV. Conditions: ref [15]; cited from earlier work.

Usually Kd stands for the concentration at which binding is half-saturated. With ^mutgp120_(core)/CD4M33 complex, the Kd amounted to 7 µM in data set [1], 7.5 µM in data set [2] and 6 µM in data set [3].

As for “PL2: CCR5 ECL2 peptide, residues 168-191 (RSQKEGLHYTCSSHFPYSQYQFWK; UniProt P51681 168-191, looked up, fragment)”, the “conformation of free peptide” value in data set [4] was “unstructured in solution”. For the same substance, the strain specificity result in the data set with R5 viruses [5] (R5 strains) is reported as “specific for R5 strains”. The “50% inhibition concentration, fusion” value in the data set on R5 viruses [5] (R5 virus Ba-L) was 20 µg/mL. The “fusion inhibition, R5 viruses” value in the data set with R5 viruses [5] (fusion of R5 viruses with target cells) is reported as “inhibited the fusion of R5 viruses with target cells”. Further, the “fusion inhibition, X4 viruses” value in the data set with X4 viruses [6] is “did not inhibit fusion of X4 viruses”. The neutralization concentration range in the data set with R5 viruses [7] and in the data set on X4 viruses [8] was ~100 µM throughout. In addition, the “neutralization of X4 strain LAV” value with X4 strain LAV is “None of these peptides neutralized the X4 strain LAV”.

The substance “^mutgp120_(core) (HIV-1 JR-FL gp120 88-492, ΔV1/V2, V3 replaced by GAG, non-aggregating mutant) (domain or fragment)” had a Kd in [3] of 18 µM. That is a double-digit micromolar value.
